Marks after values point to notes of the source that are not given here.
Columns and labels:
[1] = system: adhesion formation; experiment: Rabbit uterine horn model of surgical adhesions; format: in vivo
Procedure: New Zealand female white rabbits were anesthetized and a midline incision made through the skin and the abdominal wall. Both uterine horns were located and exteriorized. Using a French Catheter Scale, the diameter of each uterine horn was measured and recorded. Only those rabbits with uterine horns measuring size 8 to 16, inclusive, on the French scale were used. Using a number 10 scalpel blade, 5 cm lengths of each uterine horn, approximately 1 cm from the uterine bifurcation, were scraped, 40 times per side, until punctuate bleeding. Hemostasis was achieved by tamponade.
Test agent (0.4 to 2.5 ml) was applied over the horns via an 18 gauge needle. Uterine horns were replaced into the pelvis and the abdominal incision closed.
Body weights of the animals were recorded. The abdomen was opened and the surgical site inspected. Adhesions were graded by a blinded observer as follows:
The total length (cm) of each uterine horn involved with adhesions was estimated and recorded.
Adhesions were grades as 0 (absent), 1.0 (filmy adhesions) and 2.0 (tenacious, requiring sharp dissection).
The degree of uterine convolution was recorded according to the following scale:
No convolution: Straight lengths of adherent or non-adherent horns which are clearly discerned.
Completely convoluted: It is impossible to discern uterine anatomy because the horn is completely entangled.

[2] = system: collagen-induced arthritis
Procedure: Syngeneic female Louvain rats weighing 120 to 150 grams were injected intradermally with 0.5 mg of native chick collagen II (Genzyme, Boston, Mass.) solubilized in 0.1 M acetic acid and emulsified in FIA (Difco, Detroit, Mich.). […] The control and experimental animals were evaluated for disease severity both clinically and radiographically by individuals blinded to treatment groups.
The severity of inflammation for each limb was evaluated daily and scored based on standardized levels of swelling and periarticular erythema (0 being normal and 4 severe). Animals were evaluated radiographically on day 28 of the experiment. The radiographs of both hind limbs were graded by the degree of soft tissue swelling, joint space narrowing, bone destruction, and periosteal new bone formation. A scale of 0-3 was used to quantify each limb (0=normal, 1=soft tissue swelling, 2=early erosions of bone, 3=severe bone destruction and/or ankylosis). Histological assessment of the joints was completed at the conclusion of the experiment.
Delayed-type hypersensitivity (DTH) to CII was determined by a radiometric ear assay completed on day 28. Radiometric ear indices≧1.4 represent a significant response to CII. The presence of anti-CII IgG antibodies was determined by enzyme-linked immunosorbent assay (ELISA).

[3] = system: AP-1 transcriptional activity; experiment: IL-1 stimulated AP-1 driven CAT reporter gene in chondrocytes; format: cell-based; conditions: 10^−7 to 10^−5 M
Text: The data noted with an asterisk (*) have significance compared with IL-1-induced CAT activity according to a t-test, P<0.05. The results shown are representative of three independent experiments.

CC(=O)O[C@H]1C(=O)[C@@]2(C)[C@H]([C@H](OC(=O)c3ccccc3)[C@]3(O)C[C@H](OC(=O)[C@H](O)[C@@H](NC(=O)c4ccccc4)c4ccccc4)C(C)=C1C3(C)C)[C@]1(OC(C)=O)CO[C@@H]1C[C@@H]2O [paclitaxel]
Adhesion-Free: number of uterine horns free of adhesions/total ([1]; 0.1% in vehicle): 0/20
Convolution: number of uterine horns with no convolution/partial convolution/full convolution ([1]; 0.1% in vehicle): 16/2/2†
Extent: length of uterine horn with adhesions (± Standard Error of the Mean) ([1]; 0.1% in vehicle): 2.925 (0.338)* cm
Extent: length of uterine horn with adhesions (± Standard Error of the Mean) ([1]; 0.1% in vehicle, listed as Paclitaxel): 2.925±0.338 cm
Adhesion-Free: number of uterine horns free of adhesions/total ([1]; 1% in vehicle): 0/18
Convolution: number of uterine horns with no convolution/partial convolution/full convolution ([1]; 1% in vehicle): 18/0/0‡
Extent: length of uterine horn with adhesions (± Standard Error of the Mean) ([1]; 1% in vehicle): 2.028±0.374 cm
Extent: length of uterine horn with adhesions (± Standard Error of the Mean) ([1]; 1% in vehicle, listed as paclltaxel): 2.028 (0.374)** cm
radiographic disease ([2]; high- and low-dose suppression groups vs control): significantly less radiographic disease
clinical symptoms ([2]; low- and high-dose suppression protocols, i.p. from day 9): significant clinical improvement
IgG antibodies to type II collagen (ELISA) ([2]; paclitaxel-treated rats vs control group): significantly lower
radiographic changes / clinical arthritis ([2]; prevention protocol): None of the rats in the paclitaxel arthritis prevention protocol manifested any radiographic changes or clinical arthritis
development of arthritis ([2]; prevention protocol: 1 mg/kg i.p. from day 2): completely precluded development of the disease
toxic effects of the treatment ([2]; rat, in vivo): few, if any toxic effects
IL-1 induced AP-1 reporter gene CAT activity [3]: reduced in chondrocytes by paclitaxel in a concentration dependent manner

Reference: US6689803B2, “Compositions and methods for treating surgical adhesions” (Angiotech Pharmaceuticals, Inc., priority 1996, dated 2004)
